The values below come from ChEMBL document CHEMBL1144315, “Three-dimensional quantitative structure (3-D QSAR) activity relationship studies on imidazolyl and N-pyrrolyl heptenoates as 3-hydroxy-3-methylglutaryl-CoA reductase (HMGR) inhibitors by comparative molecular similarity indices analysis (CoMSIA)” (Bioorg Med Chem Lett, 2005).

The assay addresses T1, 3-hydroxy-3-methylglutaryl-coenzyme A reductase (Homo sapiens, UniProt P04035).
T1 sequence (P04035 whole entry): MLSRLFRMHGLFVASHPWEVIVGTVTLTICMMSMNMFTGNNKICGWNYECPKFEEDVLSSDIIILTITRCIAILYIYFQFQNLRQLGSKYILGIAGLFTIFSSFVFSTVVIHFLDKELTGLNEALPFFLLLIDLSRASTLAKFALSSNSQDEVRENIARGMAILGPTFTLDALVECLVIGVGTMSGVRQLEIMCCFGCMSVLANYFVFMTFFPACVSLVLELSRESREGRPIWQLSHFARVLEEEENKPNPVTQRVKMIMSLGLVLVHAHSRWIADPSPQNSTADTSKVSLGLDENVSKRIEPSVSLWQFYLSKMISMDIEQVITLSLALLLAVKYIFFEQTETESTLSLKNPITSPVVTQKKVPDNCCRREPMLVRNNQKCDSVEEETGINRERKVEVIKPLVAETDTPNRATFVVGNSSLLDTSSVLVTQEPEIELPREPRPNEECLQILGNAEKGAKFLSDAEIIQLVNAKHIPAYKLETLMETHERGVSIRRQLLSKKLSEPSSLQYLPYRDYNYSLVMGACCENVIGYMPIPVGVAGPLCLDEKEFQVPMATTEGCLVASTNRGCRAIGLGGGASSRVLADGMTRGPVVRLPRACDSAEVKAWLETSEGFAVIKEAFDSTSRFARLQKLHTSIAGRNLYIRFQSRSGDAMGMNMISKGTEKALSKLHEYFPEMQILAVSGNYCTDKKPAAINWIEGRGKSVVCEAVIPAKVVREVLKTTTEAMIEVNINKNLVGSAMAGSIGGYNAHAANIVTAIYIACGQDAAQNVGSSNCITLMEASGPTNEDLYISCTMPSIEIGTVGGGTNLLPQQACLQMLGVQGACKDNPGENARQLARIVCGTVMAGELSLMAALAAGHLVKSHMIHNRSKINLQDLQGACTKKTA
Put plainly: Inhibitory concentration against 3-hydroxy-3-methylglutaryl-CoA reductase.

Molecules are shown by their SMILES. A value given as a limit tells only on which side of the number the result lay.

On to `O=C(O)C[C@H](O)C[C@H](O)/C=C/n1c(C(F)(F)F)nc(-c2ccc(F)cc2)c1-c1ccc(F)cc1`, for which the IC50 (as a rule, the midpoint of a concentration-inhibition curve) came out at 7.89 nM.
With `Cc1cc(C)cc(-c2c(-c3ccc(F)cc3)nc(C(C)C)n2/C=C/[C@@H](O)C[C@@H](O)CC(=O)O)c1`, it took 7.25 nM to reach half-maximal inhibition (IC50).
In the case of `CC(C)c1nc(-c2cccc(S(C)(=O)=O)c2)c(-c2ccc(F)cc2)n1/C=C/[C@@H](O)C[C@@H](O)CC(=O)O`, the IC50 was 8.7 nM.
In the case of `CC(C)c1c(Br)c(-c2ccc(F)cc2)c(-c2ccc(F)cc2)n1/C=C/[C@@H](O)C[C@@H](O)CC(=O)O`, the IC50 is 9.52 nM. This IC50 and that of the molecule before are within 1.5-fold of each other.
Consider `Cc1nc(-c2ccc(F)cc2)c(-c2ccc(F)cc2)n1/C=C/[C@@H](O)C[C@@H](O)CC(=O)O`, for which the IC50 was less than 7 nM.
As for `Cc1cc(F)ccc1-c1c(-c2ccc(F)cc2)nc(C(C)C)n1/C=C/[C@@H](O)C[C@@H](O)CC(=O)O`, the figure is 8.4 nM; as for `CC(C)c1cc(-c2ccc(F)cc2)c(-c2ccccc2)n1/C=C/[C@@H](O)C[C@@H](O)CC(=O)O`, 7.6 nM; as for `CNc1cccc(-c2nc(C(C)C)n(/C=C/[C@@H](O)C[C@@H](O)CC(=O)O)c2-c2ccc(F)cc2)c1`, 8.52 nM.
`CC(C)(C)c1nc(-c2ccc(F)cc2)c(-c2ccc(F)cc2)n1/C=C/[C@@H](O)C[C@@H](O)CC(=O)O` displayed an IC50 of 8.15 nM.
Consider `CC(C)c1cc(-c2ccccc2)c(-c2ccc(F)cc2)n1/C=C/[C@@H](O)C[C@@H](O)CC(=O)O`, for which inhibition was half-maximal at 8.7 nM (IC50). The IC50 values of the last two molecules are within 1.5-fold of each other.
Turning to `Cc1cc(-c2c(-c3ccc(F)cc3)nc(C(C)C)n2/C=C/[C@@H](O)C[C@@H](O)CC(=O)O)cc(C)c1F`, the IC50 stood at 7.52 nM.
For `CC(C)c1cc(-c2ccc(F)cc2)c(-c2cccc(Cl)c2)n1/C=C/[C@@H](O)C[C@@H](O)CC(=O)O`, the IC50 came out at 7.15 nM.
On to `CN(C)c1nc(-c2ccc(F)cc2)c(-c2ccc(F)cc2)n1/C=C/[C@@H](O)C[C@@H](O)CC(=O)O`, for which 8.04 nM corresponded to half-maximal inhibition (IC50). The IC50 values of the last two molecules are within 1.5-fold of each other.
For the molecule `CCc1cc(-c2c(-c3ccc(F)cc3)nc(C(C)C)n2/C=C/[C@@H](O)C[C@@H](O)CC(=O)O)cc(CC)c1F`, the midpoint of inhibition, the IC50, lay at 7 nM.
Take `CC(C)c1cc(-c2cccc(Cl)c2)c(-c2ccc(F)cc2)n1/C=C/[C@@H](O)C[C@@H](O)CC(=O)O`: the IC50 was found to be 8.7 nM.
`CC(C)c1cc(-c2ccc(F)cc2)c(-c2cccc(Br)c2)n1/C=C/[C@@H](O)C[C@@H](O)CC(=O)O` yielded an IC50 of 7.16 nM.
For the molecule `CC(C)c1c(-c2ccc(F)cc2)nc(-c2ccc(F)cc2)n1/C=C/[C@@H](O)C[C@@H](O)CC(=O)O`, the IC50 stood at 9 nM.
Take `Cc1cc(-c2nc(C(C)C)n(/C=C/[C@@H](O)C[C@@H](O)CC(=O)O)c2-c2ccc(F)cc2)cc(C)c1Cl`: the IC50 came out at 8.7 nM.
In turn, `CC(C)c1cc(-c2cccc(Br)c2)c(-c2ccc(F)cc2)n1/C=C/[C@@H](O)C[C@@H](O)CC(=O)O` registered a concentration for half-maximal inhibition (IC50) of 9.3 nM. This IC50 and that of the molecule before are within 1.5-fold of each other.
With `CC(C)c1nc(-c2ccc(F)cc2)c(-c2ccc(F)cc2)n1/C=C/[C@H](O)C[C@H](O)CC(=O)O`, it took 6.15 nM to reach half-maximal inhibition (IC50). Compared with the last molecule, the IC50 is about 1.5-fold lower.
As for `CC(C)c1nc(-c2ccc(F)cc2)c(-c2cccc(Cl)c2)n1/C=C/[C@@H](O)C[C@@H](O)CC(=O)O`, the figure is 8.1 nM; as for `CC(C)c1cc(-c2ccncc2)c(-c2ccc(F)cc2)n1/C=C/[C@@H](O)C[C@@H](O)CC(=O)O`, 8.3 nM; as for `CC(C)c1nc(-c2cccnc2)c(-c2ccc(F)cc2)n1/C=C/[C@@H](O)C[C@@H](O)CC(=O)O`, 9 nM.
As for `CC(C)c1nc(-c2ccc(F)cc2)c(-c2ccc(F)cc2)n1/C=C/[C@H](O)C[C@@H](O)CC(=O)O`, the figure is 5.7 nM; as for `CC(C)c1nc(-c2ccc(F)cc2)c(-c2cc(Cl)cc(Cl)c2)n1/C=C/[C@@H](O)C[C@@H](O)CC(=O)O`, 7.66 nM.
In turn, `CC(C)c1cc(-c2ccccn2)c(-c2ccc(F)cc2)n1/C=C/[C@@H](O)C[C@@H](O)CC(=O)O` registered an IC50 of 8.7 nM.
Regarding `CC(C)c1nc(-c2ccc(F)cc2)c(-c2ccc(F)cc2)n1/C=C/[C@@H](O)C[C@@H](O)CC(=O)O`, the IC50 is 9 nM. The IC50 values of the last two molecules are within 1.5-fold of each other.
Molecule `CC(C)c1cc(-c2ccc(F)cc2)c(-c2ccc(F)cc2)n1/C=C/[C@@H](O)C[C@@H](O)CC(=O)O` (stereo in doubt; 19) gave an IC50 of 8.7 nM.
With `CC(C)c1cc(-c2ccc(F)cc2)c(-c2ccc(F)cc2)n1/C=C/[C@@H](O)C[C@@H](O)CC(=O)O` (stereo in doubt; 29), the IC50 was found to be 6.98 nM.
The molecule `COCc1c(C(C)C)nc(C(C)C)c(/C=C/[C@@H](O)C[C@@H](O)CC(=O)O)c1-c1ccc(F)cc1` [CERIVASTATIN] came in with an IC50 of 10 nM. The IC50 values of the last two molecules are within 1.5-fold of each other.
`CC(C)n1c(/C=C/C(O)CC(O)CC(=O)O)c(-c2ccc(F)cc2)c2ccccc21` (stereo not drawn) [FLUVASTATIN] returned an IC50 of 28 nM.
As for `CC[C@H](C)C(=O)O[C@H]1CCC=C2C=C[C@H](C)[C@H](CC[C@@H]3C[C@@H](O)CC(=O)O3)[C@H]21` [MEVASTATIN], the figure is 23 nM.
Consider `CC(C)c1nc(N(C)S(C)(=O)=O)nc(-c2ccc(F)cc2)c1/C=C/[C@@H](O)C[C@@H](O)CC(=O)O` [ROSUVASTATIN], for which the IC50 worked out at 5 nM.
